test: in vitro; conditions: human, hela cells, % viability

Going from `COc1ccc(C(C)C)cc1-c1cnc2[nH]c(=O)n([C@@H](CO)C(C)C)c2n1` [CBK064495] to `COc1ccc(C(C)C)cc1-c1cnc2[nH]c(=O)n([C@H](CO)C(C)C)c2n1` [CBK064962], the viability at 28.5 h, 10 µM rises from 90.3% to 96.2%.

Compared with `CCCC/C=C/c1cnc2[nH]c(=O)n(CCc3cccnc3)c2n1` [CBK064496], `COCCCn1c(=O)[nH]c2ncc(-c3cccnc3)nc21` [CBK064929] is higher in viability at 28.5 h, 10 µM: 92.7% for the first, 104% for the second.

Compared with `COCCCn1c(=O)[nH]c2ncc(-c3cccc(OC)c3)nc21` [CBK064519], `CN(C)c1cccc(-c2cnc3[nH]c(=O)n(CCc4ccncc4)c3n2)c1` [CBK064628] is lower in viability at 28.5 h, 10 µM: 108% for the first, 91.1% for the second.

Going from `O=C(c1ccc(-c2cnc3[nH]c(=O)n(C4CCCCC4)c3n2)cc1)N1CCOCC1` [CBK064566] to `CN(C)CCNC(=O)c1ccc(-c2cnc3[nH]c(=O)n(C4CCCC4)c3n2)cc1` [CBK064957], the viability at 28.5 h, 10 µM rises from 106% to 110%.

Going from `O=c1[nH]c2ncc(-c3ccoc3)nc2n1Cc1ccco1` [CBK064639] to `O=c1[nH]c2ncc(-c3ccoc3)nc2n1Cc1cccs1` [CBK064647], the viability at 28.5 h, 10 µM falls from 102% to 90.3%.

First: O=c1[nH]c2ncc(-c3ccsc3)nc2n1-c1ccc2[nH]ccc2c1 [CBK064650]
Second: CS(=O)(=O)c1ccc(-c2cnc3[nH]c(=O)n(-c4ccc5[nH]ccc5c4)c3n2)cc1 [CBK064691]
The viability at 28.5 h, 10 µM of the first is higher: 108% for the first, 96.6% for the second.

Compared with `CN1CCN(C(=O)c2ccc(-c3cnc4[nH]c(=O)n(Cc5ccncc5)c4n3)cc2)CC1` [CBK064679], `CN1CCN(c2ccc(-c3cnc4[nH]c(=O)n(C5CC5)c4n3)cc2)CC1` [CBK064899] is lower in viability at 28.5 h, 10 µM: 101% for the first, 89.7% for the second.

First: CC(C)(CO)Cn1c(=O)[nH]c2ncc(-c3cccnc3)nc21 [CBK064697]
Second: CC(C)(CO)Cn1c(=O)[nH]c2ncc(-c3ccc(C(N)=O)cc3)nc21 [CBK064787]
The viability at 28.5 h, 10 µM of the first is higher: 107% for the first, 88.5% for the second.

Compared with `CS(=O)(=O)Nc1cccc(-c2cnc3[nH]c(=O)n(Cc4cccs4)c3n2)c1` [CBK064708], `COc1ccc(-c2cnc3[nH]c(=O)n(Cc4cccs4)c3n2)c(OC)c1OC` [CBK064716] is higher in viability at 28.5 h, 10 µM: 91% for the first, 97.2% for the second.

Going from `C[C@H](c1ccccc1)n1c(=O)[nH]c2ncc(-c3cncc4ccccc34)nc21` [CBK064709] to `C[C@@H](c1ccccc1)n1c(=O)[nH]c2ncc(-c3cncc4ccccc34)nc21` [CBK064726], the viability at 28.5 h, 10 µM falls from 90.4% to 73.9%.

Compared with `C[C@@H](c1ccccc1)n1c(=O)[nH]c2ncc(-c3cccc4ccccc34)nc21` [CBK064710], `CC(C)[C@H](CO)n1c(=O)[nH]c2ncc(-c3cccc4ccccc34)nc21` [CBK064985] is higher in viability at 28.5 h, 10 µM: 97% for the first, 104% for the second.

Going from `COc1ccc(C(C)C)cc1-c1cnc2[nH]c(=O)n(-c3ccc4[nH]ccc4c3)c2n1` [CBK064714] to `COc1ccc(C(C)C)cc1-c1cnc2[nH]c(=O)n(C3CC3)c2n1` [CBK064915], the viability at 28.5 h, 10 µM rises from 90.7% to 91.2%.

Going from `CC(C)(CO)Cn1c(=O)[nH]c2ncc(-c3ccc(F)c(Cl)c3)nc21` [CBK064737] to `COc1ccc(-c2cnc3[nH]c(=O)n(CC(C)(C)CO)c3n2)c(OC)c1OC` [CBK064833], the viability at 28.5 h, 10 µM falls from 102% to 91.8%.

Compared with `CC(C)[C@@H](CO)n1c(=O)[nH]c2ncc(-c3ccc(N4CCOCC4)cc3)nc21` [CBK064770], `CC(C)[C@H](CO)n1c(=O)[nH]c2ncc(-c3cccc(CO)c3)nc21` [CBK065001] is lower in viability at 28.5 h, 10 µM: 110% for the first, 96.1% for the second.

Compared with `COc1ccc(-c2cnc3[nH]c(=O)n([C@@H](CO)C(C)C)c3n2)c(OC)c1OC` [CBK064774], `COc1cncc(-c2cnc3[nH]c(=O)n([C@H](CO)C(C)C)c3n2)c1` [CBK064977] is higher in viability at 28.5 h, 10 µM: 94.3% for the first, 107% for the second.

Compared with `O=c1[nH]c2ncc(-c3ccccc3)nc2n1CCCN1CCOCC1` [CBK064805], `CN(C)C(=O)c1ccc(-c2cnc3[nH]c(=O)n(CCCN4CCOCC4)c3n2)cc1` [CBK064828] is lower in viability at 28.5 h, 10 µM: 111% for the first, 108% for the second.

First: O=c1[nH]c2ncc(-c3cccc4ncccc34)nc2n1C1CCCCC1 [CBK064861]
Second: O=c1[nH]c2ncc(-c3ccncc3)nc2n1C1CCCC1 [CBK064972]
The viability at 28.5 h, 10 µM of the first is lower: 109% for the first, 116% for the second.

Compared with `O=C(NC1CC1)c1ccc(-c2cnc3[nH]c(=O)n(CC4CCOCC4)c3n2)cc1` [CBK064890], `COc1ncc(-c2cnc3[nH]c(=O)n(CC4CCOCC4)c3n2)cn1` [CBK064898] is higher in viability at 28.5 h, 10 µM: 85.2% for the first, 98.1% for the second.

First: O=C(NC1CC1)c1ccc(-c2cnc3[nH]c(=O)n(-c4ccc5[nH]ccc5c4)c3n2)cc1 [CBK064916]
Second: C[C@H](c1ccccc1)n1c(=O)[nH]c2ncc(-c3cccc(/C=C/C(=O)O)c3)nc21 [CBK064983]
The viability at 28.5 h, 10 µM of the first is higher: 103% for the first, 83.4% for the second.

Going from `O=c1[nH]c2ncc(-c3ccc4c(c3)OCO4)nc2n1C1CC1` [CBK064922] to `O=c1[nH]c2ncc(-c3ccoc3)nc2n1C1CCOCC1` [CBK064973], the viability at 28.5 h, 10 µM rises from 98.5% to 119%.

First: NS(=O)(=O)c1ccc(Cn2c(=O)[nH]c3ncc(-c4ccco4)nc32)cc1 [CBK064948]
Second: CCCC/C=C/c1cnc2[nH]c(=O)n([C@H](CO)C(C)C)c2n1 [CBK064970]
The viability at 28.5 h, 10 µM of the first is higher: 96.8% for the first, 95% for the second.

Source: article PMC12040169 (PLOS Biology, 2025)
